Laboratory results taken from patent US20020115623A1, “Saponin derivatives useful for inhibiting sialyltransferase and biosynthesis of sialoglycoconjugate” (Shui-Tein Chen, priority 2000, published 2002).
Values belong to the molecule of their own block, whether it stands above or below them.

Legend:
[1] = target: T1, α2,6-sialyltransferase (Gallus gallus, UniProt Q92183); test: Assay of α2,6-sialyltransferase activity; type: biochemical; details: concentration of inhibitor in assay 20 μM
T1 construct: made in house
T1 sequence (Q92183 whole entry): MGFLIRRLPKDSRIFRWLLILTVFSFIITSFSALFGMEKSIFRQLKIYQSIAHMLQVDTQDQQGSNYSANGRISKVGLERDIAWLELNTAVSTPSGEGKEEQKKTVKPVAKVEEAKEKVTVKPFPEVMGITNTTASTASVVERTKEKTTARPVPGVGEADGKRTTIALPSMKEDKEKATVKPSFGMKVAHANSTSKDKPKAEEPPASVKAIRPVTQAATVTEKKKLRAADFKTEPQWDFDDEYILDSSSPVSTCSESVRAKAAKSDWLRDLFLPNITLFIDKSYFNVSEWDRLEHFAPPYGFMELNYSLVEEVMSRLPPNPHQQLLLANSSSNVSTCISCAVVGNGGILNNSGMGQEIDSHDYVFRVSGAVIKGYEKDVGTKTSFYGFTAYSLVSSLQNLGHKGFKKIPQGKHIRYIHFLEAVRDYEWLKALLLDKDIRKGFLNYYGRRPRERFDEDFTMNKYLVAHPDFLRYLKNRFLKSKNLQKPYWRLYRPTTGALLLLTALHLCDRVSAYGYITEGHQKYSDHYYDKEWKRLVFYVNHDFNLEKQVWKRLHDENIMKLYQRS
Procedure: (§1) α2,3-Sialyltransferases were prepared by the procedures as described by Tsuji et al, Eur J Biochem., 1993, 216(2), 377-85. The suspension of enzyme-bound beads in 250 mM sodium cacodylate buffer (pH 6.4), 25 mM MgCl2, 5 mM CaCl2 was mixed with a Vortex mixer. Then, 4 μl of the enzyme suspension (1×10^−6 Units) was pipetted using a Gilson P-20 pipetter immediately after mixing. The enzyme was then premixed with 4 μl of inhibitors (75 μM) or water (as control) at 25° C. for 5 min. Then, the substrates, 1 μl of CMP-[14C]NeuAc (40 nCi/μl) and 1 μl of Galα1,3GalNAc-Obzl (0.1 mM), were added to the pre-incubated enzyme-inhibitor mixture and incubated at 37° C. for 3 h. The final concentrations of sodium cacodylate, MgCl2, CaCl2, and Galα1,3GalNAc-OBzl in the reaction mixture were 100 mM, 10 mM, 2 mM, and […], respectively. The solution was placed in the ice to stop the reaction. The resulting reaction products were immediately analyzed by silica gel 60 HPTLC plate (Merck, Germany) with a solvent system of ethanol/pyridine/n-butanol/acetate/water (100:10:10:3:30). The radioactivity of the corresponding product and total radioactivity were detected and quantified with a BAS 1500 radio-image analyzer (Fuji Film, Japan).
α2,6-Sialyltransferases were prepared by the procedures as described by Tsuji et al, J Biol Chem., 1994, 269(2), 1402-9. The assay procedures for α2,6-Sialyltransferases were the same as those for α2,3-Sialyltransferases, except that 1 μl of Galα1,3GalNAc-Obzl (0.1 mM) was replaced by 1 μl of fetuin (1 μg/μl).

[2] = target: T2, α2,3-sialyltransferase (Mus musculus, UniProt P54751); test: Assay of α2,3-sialyltransferase activity; type: biochemical; details: for Percentage of inhibition (%): concentration of inhibitor in assay 30 μM
T2 construct: made in house
T2 sequence (P54751 1-337): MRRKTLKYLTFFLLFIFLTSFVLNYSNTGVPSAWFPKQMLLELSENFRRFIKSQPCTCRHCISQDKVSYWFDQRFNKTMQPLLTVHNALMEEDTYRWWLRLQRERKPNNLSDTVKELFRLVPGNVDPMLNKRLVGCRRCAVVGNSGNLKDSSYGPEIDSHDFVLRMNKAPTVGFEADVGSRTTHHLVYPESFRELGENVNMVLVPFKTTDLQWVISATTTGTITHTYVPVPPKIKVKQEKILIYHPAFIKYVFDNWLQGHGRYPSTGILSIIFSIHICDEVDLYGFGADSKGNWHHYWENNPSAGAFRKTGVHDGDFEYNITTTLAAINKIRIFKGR
Procedure: as §1

[3] = tested on: α-mannosidase; test: α-Mannosidase assay; type: biochemical; design: Relative Activity (%): dose or concentration left out as unconfirmed
Procedure: The α-mannosidase (10 mU/90 μl, Sigma) in 500 mM sodium phosphate buffer (pH 4.5) was mixed with 10 μl inhibitor (5 mM) or water, 100 μl 4-methylumbelliferyl-[…]-mannopyranoside (0.2 mM). The resulting solution was incubated at 37° C. for 30 min. The resulting products were detected through the same procedures as those for sialidase assay.

[4] = tested on: human hepatoma HepG2 cells; test: Growth inhibition of HepG2 cells; type: cell-based; details: FIG. 3
Procedure: (§2) Human breast cancer cell MCF7 and hepatoma cell HepG2 were incubated in 5% CO2 incubator at 37° C. with the MEM (Eagle) medium with Earle's Bss supplemented with 2 mM glutamine, 1.5 g/l sodium bicarbonate, 0.1 mM non-essential amino acids, 1.0 mM sodium pyruvate, 100 units/ml penicillin, 100 μg/ml streptomycin and 2.5 μg/ml amphotericin B and with 10% fetal bovine serum. The cells were transferred weekly to 0.025% trypsin in 0.53 mM EDTA in Ca^2+Mg^2+-free PBS. The cells were incubated in the culture medium with 2.5% fetal bovine serum in the presence of a different concentration (5, 25, 50 and 100 μM, respectively) of the inhibitor in a 5% CO2 incubator at 37° C. for three days.

[5] = tested on: fucosyltransferase; test: Fucosyltransferase assay; type: biochemical; details: FIG. 1
Procedure: The fucosyltransferase (1 mU/10 μl, Calbiochem) in 100 mM Tris-HCl buffer (pH 7.5) and 40 mM MnCl2 was mixed with 4 μl inhibitor or water, 4 μl N-acetylglucosamine (1 mM) and 2 μl GDP-[^14C]fucose (20 nCi). The resulting solution was incubated at 37° C. for one hour. The reaction products were detected through the same procedures as those for sialyltransferase assay.

[6] = tested on: cell surface α2,3-sialoglycoconjugates on MCF7; test: Flow cytometry (FITC-MAA) of inhibitor-treated MCF7 cells; type: cell-based, human; details: for Cell surface α2,3-sialoglycoconjugates (%) on MCF7: three days, FITC-MAA stain, control 100
Procedure: as §2, with “PBS.” for “PBS. The cells were incubated in the culture medium with 2.5% fetal bovine serum in the presence of a different concentration (5, 25, 50 and 100 μM, respectively) of the inhibitor in a 5% CO2 incubator at 37° C. for three days.”
(§3) The cells were incubated in the culture medium with 2.5% fetal bovine serum in the presence of a different concentration (5, 25, 50 and 100 μM, respectively) of the inhibitor in a 5% CO2 incubator at 37° C. for three days.
(§4) Fluorescein isothiocyanate labeled Maackia amurensis agglutinin (MAA) and Sambucus nigra agglutinin (SNA), which recognize the oligosaccharide species NeuAcα2,3-Gal-R and NeuAcα2,6-R, respectively, were purchased from Vector Labs Inc. (Burlingame, Calif.). Cells (control and inhibitor-treated). The cells scraped from dishes with a rubber policeman were washed with PBS and stained with fluorescein isothiocyanate labeled MAA and SNA, respectively, in binding buffer (10 mM HEPES, 0.15 M NaCl, pH 7.5) at 4° C. for 1 h. After centrifugation, cells were washed three times with PBS and fixed with 1% paraformaldehyde. The fluorescence intensity was measured with a FACScan flow cytometry (Becton Dickinson, Mountain View, Calif.).

[7] = tested on: cell surface α2,6-sialoglycoconjugates on HepG2; test: Flow cytometry (FITC-SNA) of inhibitor-treated HepG2 cells; type: cell-based, human; details: for Cell surface α2,6-sialoglycoconjugates (%) on HepG2: three days, FITC-SNA stain, control 100
Procedure: as §2, with “PBS.” for “PBS. The cells were incubated in the culture medium with 2.5% fetal bovine serum in the presence of a different concentration (5, 25, 50 and 100 μM, respectively) of the inhibitor in a 5% CO2 incubator at 37° C. for three days.”
as §3, §4

[8] = tested on: β-galactosidase; test: β-Galactosidase assay; type: biochemical; design: Relative Activity (%): dose or concentration left out as unconfirmed
Procedure: […] The resulting solution was incubated at 37° C. for 30 min. The resulting products were detected through the same procedures as those for sialidase assay.

[9] = tested on: sialidase; test: Sialidase assay; type: biochemical; design: Relative Activity (%): dose or concentration left out as unconfirmed
Procedure: The sialidase (10 mU/90 μl, sigma) in 500 mM sodium phosphate buffer (pH 4.5) was mixed with 10 μl inhibitor (5 mM) or water, 100 μl 4-methylumbelliferyl-[…]-acetylneuraminic acid (0.2 mM, sigma). The resulting solution was incubated at 37° C. for 30 min. The solution was added 1 ml quenching buffer (0.133 M glycine-NaOH, pH 10.7, 60 mM NaCl and 41.5 mM Na2CO3) to stop the reaction. The fluorescence intensity of the resulting solution was measured by fluorescence spectrophotometer at 360 nm excitation and at 440 nm emission.

[10] = tested on: human breast cancer MCF7 cells; test: Growth inhibition of MCF7 cells; type: cell-based; details: FIG. 2
Procedure: as §2

Molecule: CC1(C)C[C@@H](O)[C@]2(C)CC[C@]3(C)C(=CC[C@@H]4[C@@]5(C)CC[C@H](O[C@@H]6O[C@H](C(=O)O)[C@@H](O)[C@H](O)[C@H]6O[C@@H]6O[C@H](CO)[C@H](O)[C@H](O)[C@H]6O)[C@](C)(CO)[C@@H]5CC[C@]43C)[C@@H]2C1 [soyasaponin III]
Percentage of inhibition (%) [1]: 23.1%
Percentage of inhibition (%) [2]: 61.5%

Molecule: CC1OC(OC2C(OC3C(OC4CCC5(C)C(CCC6(C)C5CC=C5C7CC(C)(C)CC(O)C7(C)CCC56C)C4(C)C)OC(C(=O)O)C(O)C3O)OC(CO)C(O)C2O)C(O)C(O)C1O (centres unmarked) [kaikasaponin III]
Percentage of inhibition (%) [1]: 83.2%
Percentage of inhibition (%) [2]: 95.5%

Molecule: C[C@@H]1O[C@@H](O[C@H]2[C@H](O[C@H]3[C@H](O[C@H]4CC[C@@]5(C)[C@@H](CC[C@]6(C)[C@@H]5CC=C5[C@@H]7CC(C)(C)C[C@@H](O)[C@]7(C)CC[C@]56C)[C@@]4(C)CO)O[C@H](C(=O)O)[C@@H](O)[C@@H]3O)O[C@H](CO)[C@H](O)[C@@H]2O)[C@H](O)[C@H](O)[C@H]1O [soyasaponin I]
inhibition of mannosidase (in words) ([3]; Table 3): did not inhibit
Relative Activity (%) ([3]; soyasaponin I, control 100): 99.4%
growth of human hepatoma HepG2 cells (in words) [4]: inhibited the growth
Percentage of inhibition (%) [1]: 76.9%
inhibition of fucosyltransferase (in words) [5]: not for fucosyltransferase
Cell surface α2,3-sialoglycoconjugates (%) on MCF7 ([6]; 5 μM): 99.5%
Cell surface α2,3-sialoglycoconjugates (%) on MCF7 ([6]; 25 μM): 68.0%
Cell surface α2,3-sialoglycoconjugates (%) on MCF7 ([6]; 50 μM): 56.8%
decrease of the α2,3-sialoglyconjugates of MCF7 cells ([6]; 100 μM): about 80%
Cell surface α2,3-sialoglycoconjugates (%) on MCF7 ([6]; 100 μM): 19.8%
Cell surface α2,6-sialoglycoconjugates (%) on HepG2 ([7]; 5 μM): 96.5%
Cell surface α2,6-sialoglycoconjugates (%) on HepG2 ([7]; 25 μM): 85.1%
Cell surface α2,6-sialoglycoconjugates (%) on HepG2 ([7]; 50 μM): 76.4%
decrease of cell surface α2,6-sialoglyconjugates of HepG2 cells ([7]; 100 μM): about 60%
Cell surface α2,6-sialoglycoconjugates (%) on HepG2 ([7]; 100 μM): 41.4%
inhibition of galactosidase (in words) ([8]; Table 3): did not inhibit
Relative Activity (%) ([8]; soyasaponin I, control 100): 112.0%
inhibition of sialyltransferases (in words) ([2]; FIG. 1, sialyltransferases, type not specified): specifically inhibited
Percentage of inhibition (%) [2]: 89.9%
inhibition of sialidase (in words) ([9]; Table 3): did not inhibit
Relative Activity (%) ([9]; soyasaponin I, control 100): 142.0%
growth of human breast cancer MCF7 cells (in words) [10]: inhibited the growth

Further lines, results first:

Percentage of inhibition (%) [1]: 32.2%
Percentage of inhibition (%) [2]: 63.8%
Molecule: soyasaponin I-Me

Percentage of inhibition (%) [1]: 64.4%
Percentage of inhibition (%) [2]: 93.3%
Molecule: C[C@@H]1O[C@@H](O[C@H]2[C@H](O[C@H]3[C@H](O[C@H]4CC[C@@]5(C)[C@@H](CC[C@]6(C)[C@@H]5CC=C5[C@@H]7CC(C)(C)C[C@@H](O)[C@]7(C)CC[C@]56C)[C@@]4(C)CO)O[C@H](C(=O)O)[C@@H](O)[C@@H]3O)OC[C@H](O)[C@@H]2O)[C@H](O)[C@H](O)[C@H]1O [soyasaponin II]

Percentage of inhibition (%) [1]: 32.9%
Percentage of inhibition (%) [2]: 79.6%
Molecule: CC1(C)CC(O)C2(C)CCC3(C)C(=CCC4C5(C)CCC(OC6OC(C(=O)O)C(O)C(O)C6OC6OC(CO)C(O)C(O)C6OC6OC(CO)C(O)C(O)C6O)C(C)(CO)C5CCC43C)C2C1 (centres unmarked) [soyasaponin V]
